What was measured:
PARG = PARG (Homo sapiens, UniProt Q86W56); experiment: Biochemical assay (PARG, TFMU-ADPr substrate)
HCC1806 = experiment: Cell viability assay (CellTiter-Glo); format: cell-based, Human; conditions: Homo sapiens, HCC1806, 168 h, HCC1806, 7 days, CellTiter-Glo; read-out: IC50 (nM) in cell viability assay
[1] = 4 nM PARG, 66.2 uM TFMU-ADPr, 3 min at room temperature

Chain of PARG (Q86W56 whole entry): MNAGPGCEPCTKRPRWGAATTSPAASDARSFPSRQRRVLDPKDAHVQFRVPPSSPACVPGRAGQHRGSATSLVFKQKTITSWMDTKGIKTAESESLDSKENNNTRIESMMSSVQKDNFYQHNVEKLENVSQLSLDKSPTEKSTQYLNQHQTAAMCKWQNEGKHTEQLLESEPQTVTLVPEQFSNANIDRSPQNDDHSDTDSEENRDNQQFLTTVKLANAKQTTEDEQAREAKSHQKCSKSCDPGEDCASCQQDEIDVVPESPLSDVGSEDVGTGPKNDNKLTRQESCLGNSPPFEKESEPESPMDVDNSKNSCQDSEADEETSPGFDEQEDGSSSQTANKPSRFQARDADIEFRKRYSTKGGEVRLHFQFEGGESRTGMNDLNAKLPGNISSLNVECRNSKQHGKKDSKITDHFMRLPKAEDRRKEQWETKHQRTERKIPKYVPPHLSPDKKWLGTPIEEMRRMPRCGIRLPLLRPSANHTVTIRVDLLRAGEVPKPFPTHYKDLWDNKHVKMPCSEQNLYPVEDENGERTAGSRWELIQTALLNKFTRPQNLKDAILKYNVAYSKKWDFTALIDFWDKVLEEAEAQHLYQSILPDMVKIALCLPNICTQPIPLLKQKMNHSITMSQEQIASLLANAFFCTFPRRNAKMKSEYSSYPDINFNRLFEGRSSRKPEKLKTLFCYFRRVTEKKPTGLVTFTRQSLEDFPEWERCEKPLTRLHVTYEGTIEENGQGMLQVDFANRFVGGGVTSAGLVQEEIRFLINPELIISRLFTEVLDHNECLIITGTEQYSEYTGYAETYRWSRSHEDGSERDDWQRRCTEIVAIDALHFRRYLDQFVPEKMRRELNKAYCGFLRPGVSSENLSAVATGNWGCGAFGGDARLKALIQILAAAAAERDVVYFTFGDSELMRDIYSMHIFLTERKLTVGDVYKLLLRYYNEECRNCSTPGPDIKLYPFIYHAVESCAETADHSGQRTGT

Row | Structure (SMILES) | IC50 (PARG; [1]) [nM] | IC50 (HCC1806) [nM] | IC50 (PARG; PARG, TFMU-ADPr substrate) [nM]
1 | CC1(NS(=O)(=O)c2cc(N3CCN(C(=O)c4ccc5c(c4)OCO5)CC3)c3cnc(-c4nnc(C(F)(F)F)s4)n3c2)CC1 [Example 307, 8-(4-(benzo[d][1,3]dioxole-5-carbonyl)piperazin-1-yl)-N-(1-methylcyclopropyl)-3-(5-(trifluoromethyl)-1,3,4-thiadiazol-2-yl)imidazo[1,5-a]pyridine-6-sulfonamide] |  | 540 | 4.13
2 | N#CC1(NS(=O)(=O)c2cc(C#Cc3c[nH]cn3)c3cnc(-c4nnc(C(F)F)s4)n3c2)CC1 [Example 376, 8-((1H-imidazol-4-yl)ethynyl)-N-(1-cyanocyclopropyl)-3-(5-(difluoromethyl)-1,3,4-thiadiazol-2-yl)imidazo[1,5-a]pyridine-6-sulfonamide] |  | 30000 | 
3 | N#CC1(NS(=O)(=O)c2cc(N3CCC(N)CC3)c3cnc(-c4nnc(C(F)(F)F)s4)n3c2)CC1 [Example 263, 8-(4-aminopiperidin-1-yl)-N-(1-cyanocyclopropyl)-3-(5-(trifluoromethyl)-1,3,4-thiadiazol-2-yl)imidazo[1,5-a]pyridine-6-sulfonamide] |  | 4500 | 
4 | C[C@H]1CN(c2cc(S(=O)(=O)NC3(C)COC3)cn3c(-c4nnc(C(F)F)s4)nc(Cl)c23)C[C@H](CO)O1 [Example 397, 1-chloro-3-(5-(difluoromethyl)-1,3,4-thiadiazol-2-yl)-8-((2R,6S)-2-(hydroxymethyl)-6-methylmorpholino)-N-(3-methyloxetan-3-yl)imidazo[1,5-a]pyridine-6-sulfonamide] |  | 530 | 
5 | Cc1ncc2n1CCN(c1cc(S(=O)(=O)NC3(C#N)CC3)cn3c(-c4nnc(C(F)F)s4)ncc13)C2 [Example 44, N-(1-cyanocyclopropyl)-3-(5-(difluoromethyl)-1,3,4-thiadiazol-2-yl)-8-(3-methyl-5,6-dihydroimidazo[1,5-a]pyrazin-7(8H)-yl)imidazo[1,5-a]pyridine-6-sulfonamide] | < 100 |  | 10.7
6 | CC(C)C(=O)NC1CCCN(c2cc(S(=O)(=O)NC3(C#N)CC3)cn3c(-c4nnc(C(F)(F)F)s4)ncc23)C1 (stereo not drawn) [Example 267, N-(1-(6-(N-(1-cyanocyclopropyl)sulfamoyl)-3-(5-(trifluoromethyl)-1,3,4-thiadiazol-2-yl)imidazo[1,5-a]pyridin-8-yl)piperidin-3-yl)isobutyramide] |  | 1500 | 
7 | N#CC1(NS(=O)(=O)c2cc(N3CCC(OC(F)(F)F)CC3)c3cnc(-c4nnc(C(F)F)s4)n3c2)CC1 [Example 48, N-(1-cyanocyclopropyl)-3-(5-(difluoromethyl)-1,3,4-thiadiazol-2-yl)-8-(4-(trifluoromethoxy)piperidin-1-yl)imidazo[1,5-a]pyridine-6-sulfonamide] | < 100 |  | 13.2
8 | N#CC1(NS(=O)(=O)c2cc(-c3ccc4c(c3)CCO4)c3cnc(-c4nnc(C(F)F)s4)n3c2)CC1 [Example 140, N-(1-cyanocyclopropyl)-3-(5-(difluoromethyl)-1,3,4-thiadiazol-2-yl)-8-(2,3-dihydrobenzofuran-5-yl)imidazo[1,5-a]pyridine-6-sulfonamide] | < 100 |  | 26.2
9 | N#CC1(NS(=O)(=O)c2cc(N3CCC(O)(C(F)(F)F)CC3)c3cnc(-c4nnc(C(F)F)s4)n3c2)CC1 [Example 89, N-(1-cyanocyclopropyl)-3-(5-(difluoromethyl)-1,3,4-thiadiazol-2-yl)-8-(4-hydroxy-4-(trifluoromethyl)piperidin-1-yl)imidazo[1,5-a]pyridine-6-sulfonamide] | 100 to 500 |  | 115
10 | N#CC1(NS(=O)(=O)c2cc(N3CCC(CO)(C(F)(F)F)CC3)c3cnc(-c4nnc(C(F)F)s4)n3c2)CC1 [Example 145, N-(1-cyanocyclopropyl)-3-(5-(difluoromethyl)-1,3,4-thiadiazol-2-yl)-8-(4-(hydroxymethyl)-4-(trifluoromethyl)piperidin-1-yl)imidazo[1,5-a]pyridine-6-sulfonamide] | 100 to 500 |  | 316
11 | N#CC1(NS(=O)(=O)c2cc(N3CCCC(N)C3)c3cnc(-c4nnc(C(F)(F)F)s4)n3c2)CC1 (stereo not drawn) [Example 262, 8-(3-aminopiperidin-1-yl)-N-(1-cyanocyclopropyl)-3-(5-(trifluoromethyl)-1,3,4-thiadiazol-2-yl)imidazo[1,5-a]pyridine-6-sulfonamide] |  | 2000 | 
12 | N#CC1(NS(=O)(=O)c2cc(C#Cc3cncs3)c3cnc(-c4nnc(C(F)F)s4)n3c2)CC1 [Example 374, N-(1-cyanocyclopropyl)-3-(5-(difluoromethyl)-1,3,4-thiadiazol-2-yl)-8-(thiazol-5-ylethynyl)imidazo[1,5-a]pyridine-6-sulfonamide] |  | 2320 | 
13 | O=S(=O)(NC1CC1)c1cc(N2Cc3c[nH]nc3C2)c2cnc(-c3nnc(C(F)(F)F)s3)n2c1 [Example 247, N-cyclopropyl-8-(2,6-dihydropyrrolo[3,4-c]pyrazol-5(4H)-yl)-3-(5-(trifluoromethyl)-1,3,4-thiadiazol-2-yl)imidazo[1,5-a]pyridine-6-sulfonamide] |  | 27200 | 
14 | N#CC1(NS(=O)(=O)c2cc(N3CCN(C(=O)C4CNCCN4)CC3)c3cnc(-c4nnc(C(F)(F)F)s4)n3c2)CC1 (stereo not drawn) [Example 280, N-(1-cyanocyclopropyl)-8-(4-(piperazine-2-carbonyl)piperazin-1-yl)-3-(5-(trifluoromethyl)-1,3,4-thiadiazol-2-yl)imidazo[1,5-a]pyridine-6-sulfonamide] |  |  | 45.7
15 | N#CC1(NS(=O)(=O)c2cc(C#CC3CCOC3)c3cnc(-c4nnc(C(F)F)s4)n3c2)CC1 (stereo not drawn) [Example 375, N-(1-cyanocyclopropyl)-3-(5-(difluoromethyl)-1,3,4-thiadiazol-2-yl)-8-((tetrahydrofuran-3-yl)ethynyl)imidazo[1,5-a]pyridine-6-sulfonamide] |  | 855 | 
16 | C[C@H]1CN(c2cc(S(=O)(=O)NC3(C)COC3)cn3c(-c4nnc(C(F)(F)F)s4)nc(Cl)c23)C[C@H](C)O1 [Example 134, 1-chloro-8-((2S,6S)-2,6-dimethylmorpholino)-N-(3-methyloxetan-3-yl)-3-(5-(trifluoromethyl)-1,3,4-thiadiazol-2-yl)imidazo[1,5-a]pyridine-6-sulfonamide] |  |  | 69.2
17 | N#CC1(NS(=O)(=O)c2cc(NC3CCC(OC(F)(F)F)C3)c3cnc(-c4nnc(C(F)F)s4)n3c2)CC1 (stereo not drawn) [Example 151, N-(1-cyanocyclopropyl)-3-(5-(difluoromethyl)-1,3,4-thiadiazol-2-yl)-8-((3-(trifluoromethoxy)cyclopentyl)amino)imidazo[1,5-a]pyridine-6-sulfonamide] | 100 to 500 |  | 178

Results, then the compound that gave them:

Row | IC50 (PARG; [1]) [nM] | IC50 (HCC1806) [nM] | IC50 (PARG; PARG, TFMU-ADPr substrate) [nM] | Structure (SMILES)
18 | > 1000 | > 30000 |  | CC(C)C(=O)N1CCN(c2cc(S(=O)(=O)NC3(C)CNC3)cn3c(-c4nnc(C(F)F)s4)ncc23)CC1 [Example 50, 3-(5-(difluoromethyl)-1,3,4-thiadiazol-2-yl)-8-(4-isobutyrylpiperazin-1-yl)-N-(3-methylazetidin-3-yl)imidazo[1,5-a]pyridine-6-sulfonamide]
19 |  | 918 | 4.46 | CC1(NS(=O)(=O)c2cc(N3CCN(C(=O)[C@@H]4CCCN4)CC3)c3cnc(-c4nnc(C(F)(F)F)s4)n3c2)CC1 [Example 316, (S)-N-(1-methylcyclopropyl)-8-(4-prolylpiperazin-1-yl)-3-(5-(trifluoromethyl)-1,3,4-thiadiazol-2-yl)imidazo[1,5-a]pyridine-6-sulfonamide]
20 |  | 434 | 12.6 | CN1CC(F)(F)C[C@@H]1C(=O)N1CCN(c2cc(S(=O)(=O)NC3(C)CC3)cn3c(-c4nnc(C(F)(F)F)s4)ncc23)CC1 [Example 353, (R)-8-(4-(4,4-difluoro-1-methylpyrrolidine-2-carbonyl)piperazin-1-yl)-N-(1-methylcyclopropyl)-3-(5-(trifluoromethyl)-1,3,4-thiadiazol-2-yl)imidazo[1,5-a]pyridine-6-sulfonamide]
21 | 100 to 500 |  | 347 | CC(N1CCN(c2cc(S(=O)(=O)NC3(C#N)CC3)cn3c(-c4nnc(C(F)F)s4)ncc23)C[C@H]1C)C(F)(F)F (stereo partly drawn) [Example 83, N-(1-cyanocyclopropyl)-3-(5-(difluoromethyl)-1,3,4-thiadiazol-2-yl)-8-((3R)-3-methyl-4-(1,1,1-trifluoropropan-2-yl)piperazin-1-yl)imidazo[1,5-a]pyridine-6-sulfonamide]
22 | < 100 |  | 29.7 | CC(C)C(=O)N1CCN(c2cc(S(=O)(=O)NC3COC3)cn3c(-c4nnc(C(F)F)s4)cnc23)CC1 [Example 16, 3-(5-(difluoromethyl)-1,3,4-thiadiazol-2-yl)-8-(4-isobutyrylpiperazin-1-yl)-N-(oxetan-3-yl)imidazo[1,2-a]pyridine-6-sulfonamide]
23 |  | > 30000 |  | CC(C)C(=O)N1CCN(c2cc(S(=O)(=O)NC3(C#N)CC3)cc3c(-c4nnc(C(F)F)s4)nc(Cl)n23)CC1 [Example 98, 3-chloro-N-(1-cyanocyclopropyl)-1-(5-(difluoromethyl)-1,3,4-thiadiazol-2-yl)-5-(4-isobutyrylpiperazin-1-yl)imidazo[1,5-a]pyridine-7-sulfonamide]
24 | 500 to 1000 |  | 649 | CC(C)C(=O)N1CCN(c2cc(S(=O)(=O)NC(C3CC3)C(F)(F)F)cn3c(-c4nnc(C(F)F)s4)ncc23)CC1 (stereo not drawn) [Example 36, N-(1-cyclopropyl-2,2,2-trifluoroethyl)-3-(5-(difluoromethyl)-1,3,4-thiadiazol-2-yl)-8-(4-isobutyrylpiperazin-1-yl)imidazo[1,5-a]pyridine-6-sulfonamide]
25 |  |  | 9690 | CC(C)C(=O)N1CCN(c2cc(S(=O)(=O)NC3(C#N)CC3)cn3c(-c4cc5n(n4)CCCC5F)cnc23)CC1 (stereo not drawn) [Example 8]
26 |  |  | 1540 | Cc1ncc(-c2cnc3c(N4CCN(C(=O)C(C)C)CC4)cc(S(=O)(=O)NC4(C#N)CC4)cn23)s1 [Example 1, N-(1-cyanocyclopropyl)-8-(4-isobutyrylpiperazin-1-yl)-3-(2-methylthiazol-5-yl)imidazo[1,2-a]pyridine-6-sulfonamide]

— US20260258035A1, “FIVE-MEMBERED AND SIX-MEMBERED NITROGEN-CONTAINING COMPOUND, AND INTERMEDIATE, PREPARATION METHOD AND USE THEREOF” (HANGZHOU SYNRX THERAPEUTICS BIOMEDICAL TECHNOLOGY CO., LTD., priority 2022, published 2026)
